In patent publication US20160279142A1, “COMBINATIONS OF A PHOSPHOINOSITIDE 3-KINASE INHIBITOR COMPOUND AND A CDK4/6 INHIBITOR COMPOUND FOR THE TREATMENT OF CANCER” (Genentech, Inc., priority 2015, published 2016):
“Also recorded” adds a separate entry of the source.

Key:
[1] = tested on: MCF-7 breast cancer xenografts; assay: In vivo tumor efficacy study, MCF-7 breast cancer xenografts; settings: MCF-7 xenograft mice; for CR: complete responses (100% tumor regression); for PR: partial responses (tumor regression >50% but <100%); for TTP 2X: time to progression 2X; for TTP 2X / AUC/Day % TGI (lower, upper): po qdx21; for AUC/Day % TGI (lower, upper): tumor growth inhibition vs vehicle; for Vol Day 21: tumor volume at day 21, po qdx21 (method b194 gives mm^3)
Protocol: The animals were fed ad libitum water (reverse osmosis, 1 ppm Cl) and NIH 31 Modified and Irradiated Lab Diet® consisting of 18.0% crude protein, 5.0% crude fat, and 5.0% crude fiber. The mice were housed on irradiated ALPHA-Dri® Bed-o'Cobs® Laboratory Animal Bedding in static microisolators on a 12-hour light cycle at 21-22° C. (70-72° F.) and 40-60% humidity. PRC specifically complies with the recommendations of the Guide for Care and Use of Laboratory Animals with respect to restraint, husbandry, surgical procedures, feed and fluid regulation, and veterinary care. The animal care and use program at PRC is accredited by the Association for Assessment and Accreditation of Laboratory Animal Care International (AAALAC), which assures compliance with accepted standards for the care and use of laboratory animals.
Xenografts were initiated with cancer cells, including breast cancer cell lines MCF-7 (Soule H. D. et al (1973) Jour. Nat. Cancer Inst. 51 (5): 1409-1416; Levenson A. S. et al (1997) Cancer Res. 57 (15): 3071-3078; LaCroix M. et al (2004) Breast Res. and Treatment 83 (3): 249-289) and MDA-MB-453 (Vranic S. et al (2011) Onc. Letters 2: 1131-1137; Hall R. E. et al (1994) Euro. Jour. Cancer 30(4):484-490). Cells were cultured in RPMI 1640 medium supplemented with 10% fetal bovine serum, 2 mM glutamine, 100 units/mL penicillin, […] streptomycin sulfate and 25 μg/mL gentamicin. The cells were harvested during exponential growth and resuspended in phosphate buffered saline (PBS) at a concentration of 5×10^6 or 10×10^6 cells/mL depending on the doubling time of the cell line. Tumor cells were implanted subcutaneously in the right flank, and tumor growth was monitored as the average size approached the target range of 100 to 150 mm3. Twenty-one days after tumor implantation, designated as Day 0 of the study, the mice were placed into four groups each consisting of ten mice with individual tumor volumes ranging from 75-172 mm3 and group mean tumor volumes from 120-121 mm3 (see Appendix A). Volume was calculated using the formula: […]
GDC-0032 was supplied as a dry powder in salt form, which contained 73% active agent, and was stored at room temperature protected from light. Drug doses were prepared weekly in 0.5% methylcellulose: 0.2% Tween 80 in deionized water (“Vehicle”) and stored at 4° C. The salt form containing 73% active agent was accounted for in the formulation of GDC-0032 doses. Doses of GDC-0032 were prepared on each day of dosing by diluting an aliquot of the stock with sterile saline (0.9% NaCl). All doses were formulated to deliver the stated mg/kg dosage in a volume of 0.2 mL per 20 grams of body weight (10 mL/kg).
All doses were scaled to the body weights of the individual animals and were provided by the route indicated in each of the figures.
Tumor volume was measured in 2 dimensions (length and width), using Ultra Cal IV calipers (Model 54 10 111; Fred V. Fowler Company), as follows: tumor volume (mm^3)=(length×width^2)×0.5 and analyzed using Excel version 11.2 (Microsoft Corporation). A linear mixed effect (LME) modeling approach was used to analyze the repeated measurement of tumor volumes from the same animals over time (Pinheiro, J. et al (2009); Tan, N. et al (2011) Clin. Cancer Res. 17(6):1394-1404). This approach addresses both repeated measurements and modest dropouts due to any non-treatment-related death of animals before study end. Cubic regression splines were used to fit a nonlinear profile to the time courses of log 2 tumor volume at each dose level. These nonlinear profiles were then related to dose within the mixed model. Tumor growth inhibition as a percentage of vehicle control (% TGI) was calculated as the percentage of the area under the fitted curve (AUC) for the respective dose group per day in relation to the vehicle, using the following formula: % TGI=100×(1−AUCdose/AUCveh). […]

[2] = tested on: pAkt, pPRAS40, pS6RP, pRb, cleaved PARP in MDA-MB-453 tumors; assay: Protein levels (pharmacodynamic markers) in MDA-MB-453 tumors; format: in vivo, mice; settings: for levels of pRB (ratio pRb to tRb): GDC-0032 5 mg/kg, palbociclib 50 mg/kg, 1 hr and 4 hr (FIG. 9d)
Protocol: FIGS. 9a-d show ratios of protein levels of mice treated with vehicle, GDC-0032 at 5 mg/kg, palbociclib at 50 mg/kg, and the combination of GDC-0032 at 5 mg/kg+palbociclib at 50 mg/kg, measured at 1 hr and 4 hr.

[3] = tested on: cyclin D1, cyclin E, phosphorylated Rb (Ser807/811) and cleaved PARP; assay: Western blot pathway signaling in MCF7-ARO parental and resistant lines; format: cell-based; settings: 24 hours of treatment (FIG. 2)
Protocol: Cells were treated for 24 hours with 20 nM GDC-0032 (Parental and Letrozole-R1) or 2.5 μM (Let-R1.GDC-0032-R) and/or 2.5 μM palbociclib.
Taselisib combines well with palbociclib in double-resistant MCF7-ARO cells (FIG. 1c). The effect on viability of taselisib and palbociclib as single agents is shown, respectively. The combination effect of the two drugs is indicated. Starting doses for taselisib were 80 nM for the parental and letrozole-R1 lines and 10 μM for […]. Palbociclib starting doses were 10 μM for all three lines (FIGS. 1a-c). Immunoblots from samples treated for 24 hours with 20 nM taselisib (Parental and Letrozole-R1) or 2.5 (Let-R1.taselisib-R). (D) Increased growth arrest is observed with combined PI3K and CDK4/6 inhibition. Immunoblots from samples treated for 24 hours with 20 nM taselisib (Parental and Letrozole-R1) or 2.5 μM (Let-R1. taselisib-R) and/or 2.5 μM palbociclib. Dotted lines for all viability data are indicative of CTG counts at the beginning of drug treatment. Error bars indicate standard deviation around the mean.

[4] = tested on: MCF7×2.3.CMV.ARO.LetR letrozole-resistant breast cancer cells; assay: CellTiter-Glo cell viability, MCF7x2.3.CMV.ARO.LetR; format: cell-based; settings: dose titrations (FIG. 6)
Protocol: (§1) Cell culture. MCF7 cell line was obtained from the American Type Culture Collection (ATCC, VA). The cells were tested and authenticated using gene expression and single nucleotide polymorphism genotyping arrays (Hoeflich K P, et al (2009) Clin Cancer Res, 15(14):4649-4664; Hu X, et al (2009) Mol Cancer Res, 7(4):511-522) and cultured in RPMI supplemented with 10% fetal bovine serum, 100 units/ml penicillin, 100 µg/ml streptomycin, 2 mM L-glutamine and NEAA at 37° C. under 5% CO2. Stable aromatase-expressing MCF7 cells (MCF7-ARO) were generated by transfection of a plasmid vector containing the full aromatase gene and a neomycin selection gene. The cells were maintained in androstenedione and all experiments were performed in the presence of androstenedione except where indicated
(§2) The CellTiter-Glo® Luminescent Cell Viability Assay is a homogeneous method to determine the number of viable cells in culture based on quantitation of the ATP present, which signals the presence of metabolically active cells. […]
(§3) The assay assesses the ability of compounds to enter cells and inhibit cell proliferation. The assay principle is based on the determination of the number of viable cells present by quantitating the ATP present in a homogenous assay where addition of the Cell Titer-Glo® reagent results in cell lysis and generation of a luminescent signal through the luciferase reaction. […]

[5] = tested on: MCF7×2.3.ARO.LetR letrozole-resistant breast cancer cells (Letrozole-R1); assay: CellTiter-Glo cell viability, letrozole-resistant MCF7x2.3.ARO.LetR; format: cell-based; settings: letrozole-resistant MCF7 LetR (FIG. 1b, FIG. 4)
Protocol: as §1, §2, §3
Cell viability assays. […] After 4 days incubation, relative numbers of viable cells were estimated using CellTiter-Glo (Promega, Madison, Wis.) and total luminescence was measured on an Envision plate Reader (PerkinElmer, Foster City, Calif.). […]
Cell viability assays and combination assays: Cells were seeded at 1000-2000 cells/well in 384-well plates for 16 h. […] After 4 days, relative numbers of viable cells were measured by luminescence using Cell Titer-Glo® (Promega) according to the manufacturer's instructions and read on a Wallac Multilabel Reader® (PerkinElmer, Foster City). EC50 values were calculated using Prism® 4.0 software (GraphPad, San Diego). […]

Row | Structure (SMILES) | CR [1] | PR [1] | TTP 2X [1] | AUC/Day % TGI (lower, upper) [1] | Vol Day 21 [1] | levels of pAkt (ratio pAkt to tAkt) ([2]; 5 mg/kg, 1 hr and 4 hr (FIG. 9a)) | levels of pPRAS40 (ratio pPRAS40 to tPRAS40) ([2]; 5 mg/kg, 1 hr and 4 hr (FIG. 9b)) | levels of pS6RP (ratio pS6RP to tS6RP) ([2]; 5 mg/kg, 1 hr and 4 hr (FIG. 9c)) | cell death based on cleaved PARP ([2]; 5 mg/kg, 1 hr and 4 hr (FIG. 9e)) | levels of pRB (ratio pRb to tRb) [2] | PI3K pathway signaling (immunoblot) [3] | cleaved PARP (immunoblot) [3] | cell viability (CellTiter-Glo) [4] | cell viability (CellTiter-Glo) [5] | cell viability (CellTiter-Glo) ([5]; listed as taselisib)
1 | Cc1nc(-c2cn3c(n2)-c2ccc(-c4cnn(C(C)(C)C(N)=O)c4)cc2OCC3)n(C(C)C)n1 [GDC-0032, 2-(4-(2-(1-isopropyl-3-methyl-1H-1,2,4-triazol-5-yl)-5,6-dihydrobenzo[f]imidazo[1,2-d][1,4]oxazepin-9-yl)-1H-pyrazol-1-yl)-2-methylpropanamide] | 0 | 0 | 9.5 | 49 (16, 71) % | 349 | effectively decreased | effectively decreased | effectively decreased | induced cell death | decreased | decreases | detected | potency remains | potency remains; also recorded: equally sensitive | similarly sensitive
2 | CC(=O)c1c(C)c2cnc(Nc3ccc(N4CCNCC4)cn3)nc2n(C2CCCC2)c1=O [palbociclib, 6-acetyl-8-cyclopentyl-5-methyl-2-(5-(piperazin-1-yl)pyridin-2-ylamino)pyrido[2,3-d]pyrimidin-7(8H)-one, reference compound] | 0 | 0 | 8.5 | 39 (0, 63) % | 421 |  |  |  |  | decreased |  |  |  | more resistant | 
